In patent publication US6444617B1, “Fused-heterocycle dicarboxylic acid diamide derivatives or salts thereof, herbicide and usage thereof” (Nihon Nohyaku Co., Ltd., priority 1998, dated 2002):

What was measured:
Type in all cases: in vivo
soybean plant (So) = assay: Test Example 3: phytotoxicity to upland crop plants, treatment before emergence; conditions: dosage 5 kg/ha
Outline: (§1)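 Crop injury to soybean and wheat was judged on a phytotoxicity scale 14 days after a pre-emergence spray of a liquid formulation at a prescribed concentration of compound.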

wheat (Wh) = assay: as above; conditions: dosage 5 kg/ha
Outline: as §1

[1] = system: cocklebur (Xanthium strumarium L.), Xs; assay: Test Example 3: herbicidal effect on upland weeds before emergence; conditions: dosage 5 kg/ha
Outline: (§2)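 Read-out is the weed-killing rate, scored fourteen days after a single spray application made before the weeds emerged. The spray was a liquid agent carrying the active compound at a prescribed dose.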

[2] = system: cleavers (Galium aparine L.), Ga; assay: as above; conditions: dosage 5 kg/ha
Outline: as §2

[3] = system: velvetleaf (Abutilon theophtasti L.), At; assay: as above; conditions: dosage 5 kg/ha
Outline: as §2

[4] = system: forxtail grass (Alopecurus aequalis var. amurensis Ohwi), Am; assay: as above; conditions: foxtail grass, dosage 5 kg/ha
Outline: as §2

[5] = system: bird's eye speedwell (Veronica persica Poir.), Vp; assay: as above; conditions: dosage 5 kg/ha
Outline: as §2

[6] = system: barnyard grass (Echinochloa crus-galli Beauv.), Ec; assay: as above; conditions: dosage 5 kg/ha
Outline: as §2

[7] = system: bulrush (Scirpus juncoides Roxb.); assay: Test Example 1: herbicidal effect on paddy field weeds before emergence; conditions: Dosage 5 kg/ha
Outline: (§3)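 Soil in pots is brought to paddy state and seeded with barnyard grass and bulrush; before germination, the soil receives a predetermined dosage of test compound in solution. After twenty-one days, control rate relative to untreated pots is calculated and graded.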

[8] = system: barnyard grass (Echinochloa crus-galli Beauv.); assay: as above; conditions: Dosage 5 kg/ha
Outline: as §3

wheat = assay: Test Example 4: phytotoxicity to upland crop plants, treatment after emergence; conditions: dosage 5 kg/ha, sprayed after emergence, judged 14 days after treatment
Outline: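 Post-emergence foliar spray, compound at prescribed concentration, applied at defined leaf stages; weeds plus soybean/wheat grown in soil vats. Read-out: weed-killing rate and crop injury, 14 d post-treatment.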

soybean plant = assay: as above; conditions: dosage 5 kg/ha, sprayed after emergence, judged 14 days after treatment
Outline: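 Seeds sown in soil and covered. Plants raised to specified leaf stages. Agent with test compound at a prescribed concentration sprayed. Herbicidal effect and crop damage scored after 14 days as weed-killing rate.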

[9] = system: bulrush (Scirpus juncoides Roxb.); assay: Test Example 2: herbicidal effect on paddy field weeds after emergence; conditions: Dosage 5 kg/ha; one-leaved stage; 21 days after treatment
Outline: (§4)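 Weeds were sown in 1/10000 are pots of soil flooded to paddy conditions and grown to the one-leaf stage, then the soil was treated with a solution of compound at a predetermined dosage.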

[10] = system: barnyard grass (Echinochloa crus-galli Beauv.); assay: as above; conditions: Dosage 5 kg/ha; one-leaved stage; 21 days after treatment
Outline: as §4

[11] = system: monochoria (Monochoria vaginalis Presl); assay: as above; conditions: Dosage 5 kg/ha; one-leaved stage; 21 days after treatment
Outline: as §4

[12] = system: cocklebur (Xanthium strumarium L.), Xs; assay: Test Example 4: herbicidal effect on upland weeds after emergence; conditions: dosage 5 kg/ha; sprayed after emergence; judged 14 days after treatment
Outline: (§5)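 Post-emergence foliar spray at a prescribed concentration, applied once the sown weeds and soybean reached defined leaf stages in soil vats; herbicidal effect and soybean injury scored after 14 days.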

[13] = system: cleavers (Galium aparine L.), Ga; assay: as above; conditions: dosage 5 kg/ha; sprayed after emergence; judged 14 days after treatment
Outline: as §5

[14] = system: velvetleaf (Abutilon theophtasti L.), At; assay: as above; conditions: dosage 5 kg/ha; sprayed after emergence; judged 14 days after treatment
Outline: as §5

[15] = system: forxtail grass (Alopecurus aequalis var. amurensis Ohwi), Am; assay: as above; conditions: dosage 5 kg/ha; sprayed after emergence; judged 14 days after treatment
Outline: as §5

[16] = system: bird's eye speedwell (Veronica persica Poir.), Vp; assay: as above; conditions: dosage 5 kg/ha; sprayed after emergence; judged 14 days after treatment
Outline: as §5

[17] = system: barnyard grass (Echinochloa crus-galli Beauv.), Ec; assay: as above; conditions: dosage 5 kg/ha; sprayed after emergence; judged 14 days after treatment
Outline: as §5

CCCNC(=O)c1nc2nc(C)n(C)c2cc1C(=O)Nc1c(CC)ccc(Cl)c1CC [compound 1233]
5 (Crop-killing rate is 100%.): Phytotoxicity So (soybean plant (So)) | Phytotoxicity Wh (wheat (Wh)) | Phytotoxicity Wh (wheat) | Phytotoxicity So (soybean plant)
5 (Weed-killing rate is 100%.): Herbicidal effect Xs [1] | Herbicidal effect Ga [2] | Herbicidal effect At [3] | Herbicidal effect Am [4] | Herbicidal effect Vp [5] | Herbicidal effect Ec [6] | Pre-emergence treatment Bulrush (herbicidal effect) [7] | Pre-emergence treatment Barnyard grass (herbicidal effect) [8] | Post-emergence treatment Bulrush (herbicidal effect) [9] | Post-emergence treatment Barnyard grass (herbicidal effect) [10] | Post-emergence treatment Monochoria (herbicidal effect) [11] | Herbicidal effect Xs [12] | Herbicidal effect Ga [13] | Herbicidal effect At [14] | Herbicidal effect Am [15] | Herbicidal effect Vp [16] | Herbicidal effect Ec [17]

CCCNC(=O)c1nc2c(cc1C(=O)Nc1c(CC)ccc(Cl)c1CC)CCO2 [compound 919]
5 (Weed-killing rate is 100%.): Herbicidal effect Xs [1] | Herbicidal effect Ga [2] | Herbicidal effect At [3] | Herbicidal effect Am [4] | Herbicidal effect Vp [5] | Herbicidal effect Ec [6] | Pre-emergence treatment Bulrush (herbicidal effect) [7] | Pre-emergence treatment Barnyard grass (herbicidal effect) [8] | Post-emergence treatment Bulrush (herbicidal effect) [9] | Post-emergence treatment Barnyard grass (herbicidal effect) [10] | Post-emergence treatment Monochoria (herbicidal effect) [11] | Herbicidal effect Xs [12] | Herbicidal effect Ga [13] | Herbicidal effect At [14] | Herbicidal effect Am [15] | Herbicidal effect Vp [16] | Herbicidal effect Ec [17]
5 (Crop-killing rate is 100%.): Phytotoxicity So (soybean plant (So)) | Phytotoxicity Wh (wheat (Wh)) | Phytotoxicity Wh (wheat) | Phytotoxicity So (soybean plant)
